Series [1] in a line: Selectivity index, ratio of IC50 for human WI38 cells to IC50 for Leishmania mexicana mexicana MHOM/BZ/84/BEL46 promastigotes. It counts as toxicity, cell-based, WI-38. As to conditions: read-out: Ratio IC50.
Series [2] can be described thus: Selectivity index, ratio of IC50 for human WI38 cells to IC50 for erythrocytic stage of chloroquine-sensitive Plasmodium falciparum 3D7. Conditions: read-out: Ratio IC50. Type of series: toxicity, cell-based, WI-38.
Another series deals with Plasmodium falciparum. The experiment in a line: Antiplasmodial activity against erythrocytic stage of chloroquine-sensitive Plasmodium falciparum 3D7 assessed as parasite LDH activity by three-fold serial dilution method. Type of series: functional, organism-based.
A further series has as its system WI-38. The experiment in a line: Cytotoxicity against human WI38 cells by MTT assay. It counts as cell-based. Background: Tetrazolium assays rely on reduction of a dye to a coloured formazan, in cell work by metabolically active cells.
Another series can be described thus: in vitro. As to conditions: human, WI38 cells.
In series [3] the test system is Trypanosoma brucei brucei. The experiment in a line: Antitrypanosomal activity against Trypanosoma brucei brucei Lister 427 bloodstream form assessed as parasite LDH activity by three-fold serial dilution method. Type of series: functional, organism-based.
In series [4] the test system is Leishmania mexicana mexicana. The experiment in a line: Antileishmanial activity against Leishmania mexicana mexicana MHOM/BZ/84/BEL46 promastigotes assessed as parasite LDH activity by three-fold serial dilution method. It counts as functional, organism-based.

Converted amounts (≈) assume the structure as drawn.

Description for in vitro: Selectivity index, ratio of IC50 for human WI38 cells to IC50 for Trypanosoma brucei brucei Lister 427 bloodstream form

On to `C=C[C@H]1CN2CC[C@H]1C[C@H]2[C@H](O)c1cc(CC[C@@H](C)[C@H]2CC[C@H]3[C@@H]4[C@H](O)C[C@@H]5C[C@H](O)CC[C@]5(C)[C@H]4CC[C@]23C)nc2ccc(OC)cc12`, for which the selectivity ratio is 0.98 in series [1], 15.5 in series [2] and 11.1 in the series “in vitro”. For the same compound, the half-maximal inhibitory concentration (IC50) in the series with Plasmodium falciparum is 0.3 µg/mL (≈ 0.447 µM); in the series with WI-38 it was 4.57 µg/mL (≈ 6.81 µM); in series [3], 0.41 µg/mL (≈ 0.611 µM); in series [4], 4.67 µg/mL (≈ 6.96 µM).
As to `C=C[C@H]1CN2CC[C@H]1C[C@H]2[C@H](O)c1cc(CC[C@@H](C)[C@H]2CC[C@H]3[C@@H]4CC[C@@H]5C[C@H](OC(C)=O)CC[C@]5(C)[C@H]4CC[C@]23C)nc2ccc(OC)cc12`, the selectivity ratio is 1.2 in series [1], 2.7 in series [2] and 8 in the series “in vitro”. For the same compound, the IC50 with Plasmodium falciparum was determined as 6.07 µg/mL (≈ 8.71 µM); in the series with WI-38, 16.2 µg/mL (≈ 23.2 µM); in series [3], 2.03 µg/mL (≈ 2.91 µM); in series [4] it was 14 µg/mL (≈ 20 µM).

By IC50 is commonly meant the point on the concentration scale where inhibition reaches its midpoint.

Source of the values: ChEMBL document CHEMBL2413023, “Antiparasitic hybrids of Cinchona alkaloids and bile acids” (Eur J Med Chem, 2013).
